Legend:
marmoset 17β-HSD 1 = target: T1, marmoset 17β-HSD 1 (Callithrix jacchus, UniProt Q9GME2); assay: In vitro enzymatic activity, recombinant marmoset 17β-HSD 1; assay type: biochemical; settings: marmoset 17β-HSD 1; 2 µM compound; 15 nM 3H-estrone; read-out: Observed % inhibition
T1 sequence (Q9GME2 1-314): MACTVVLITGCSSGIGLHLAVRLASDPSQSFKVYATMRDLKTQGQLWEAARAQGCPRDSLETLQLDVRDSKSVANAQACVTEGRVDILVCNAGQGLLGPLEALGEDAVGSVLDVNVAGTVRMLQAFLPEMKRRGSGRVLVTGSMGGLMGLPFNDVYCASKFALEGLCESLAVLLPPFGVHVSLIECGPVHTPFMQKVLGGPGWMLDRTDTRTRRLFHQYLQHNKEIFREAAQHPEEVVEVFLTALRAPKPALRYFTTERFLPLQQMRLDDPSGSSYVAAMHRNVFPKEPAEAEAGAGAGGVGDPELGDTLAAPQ
Excerpt: (§1) Full length cDNAs of several 17β-HSDs type 1 originating from different species were cloned either into the pQE30 vector (human 17β-HSD 1, coding for acc. no. NP_000404) for expression as His-Tag protein or into a modified pGex-2T vector [63] (mouse 17β-HSD 1, acc. no. NP_034605; rat 17β-HSD 1, acc. no. NP_036983; marmoset 17β-HSD 1, acc. no. AAG01115; porcine 17β-HSD 1, acc. no. NP_001121944) for expression as GST-fusion proteins. The marmoset 17β-HSD 1 enzyme sequence was updated by the missing N-terminal part (AF272013) and the new porcine sequence was submitted to GenBank (NP_001121944). Human 17β-HSDs 2, 4, 5 (AKR1C3, the latter kindly provided by Dr. T. Penning) and 7 were all cloned into the modified pGEX-2T vector. For 17β-HSD 4 only the SDR-domain converting the steroids was subcloned. Plasmids were transformed into E.coli BL21 DE3 Codon Plus RP (Stratagene) and enzyme expression was induced by 0.5 mM IPTG. After 4h incubation at 37°C with continuous shaking bacteria were pelleted by centrifugation at 10.000×g. Pellets were stored until use at −20°C.
(§2) The bacteria containing recombinant enzymes were resuspended in PBS and enzymatic assays were performed in 100 mM sodium phosphate buffer at pH 6.6 for the reductive reaction and at pH 7.7 for the oxidative reaction. […] All substrates were purchased from NEN/Perkin Elmer. The cofactors NADPH (Sigma; for reductive reactions) and NAD^+ (Serva, for oxidative reactions) were used at final concentrations of 0.5 mg/ml. […] The incubation at 37°C was stopped with 0.21 M ascorbic acid in methanol∶acetic acid 99∶1 (v∶v) after the time needed to convert approximately 30% of the substrate in a control assay with 1% DMSO, without inhibitor candidates. […] The solvent used was acetonitrile∶water (43∶57, v∶v) at a flow rate of 1 ml/min. Radioactivity was detected by online-scintillation counting (Berthold LB506D) after mixing with ReadyFlowIII (Beckman). Conversion was calculated from integration of substrate and product peaks. […] All assays were run in duplicates of two independent experiments and mean values are reported. The IC50 values were determined by the One Ligand Binding model of SigmaPlot kinetics module.

human 17β-HSD 1 = target: T2, human 17β-HSD 1 (Homo sapiens, UniProt P14061); assay: In vitro enzymatic activity, recombinant human 17β-HSD 1 (estrone reduction); assay type: biochemical; settings: pH 6.6, read-out: Observed % inhibition
T2 construct: Full length cDNAs of several 17β-HSDs type 1 originating from different species were cloned; made in house; host or cells: E.coli BL21 DE3 Codon Plus RP
T2 sequence (P14061 1-328): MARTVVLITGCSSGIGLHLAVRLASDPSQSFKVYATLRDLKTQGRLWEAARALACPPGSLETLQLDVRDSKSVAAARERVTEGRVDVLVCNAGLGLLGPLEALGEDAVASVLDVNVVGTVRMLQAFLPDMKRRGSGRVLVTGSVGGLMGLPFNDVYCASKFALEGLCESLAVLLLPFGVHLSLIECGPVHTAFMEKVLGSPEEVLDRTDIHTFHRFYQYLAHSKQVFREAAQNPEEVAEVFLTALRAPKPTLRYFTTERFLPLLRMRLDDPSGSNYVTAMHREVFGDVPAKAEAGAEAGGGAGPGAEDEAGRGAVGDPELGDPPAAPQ
Excerpt: as §1, §2

rat 17β-HSD 1 = target: T3, rat 17β-HSD 1 (Rattus norvegicus, UniProt P51657); assay: In vitro enzymatic activity, recombinant rat 17β-HSD 1; assay type: biochemical; settings: 2 µM compound, 15 nM 3H-estrone, read-out: Observed % inhibition
T3 construct: Full length cDNAs of several 17β-HSDs type 1 originating from different species were cloned; made in house; host or cells: E.coli BL21 DE3 Codon Plus RP
T3 sequence (P51657 1-344): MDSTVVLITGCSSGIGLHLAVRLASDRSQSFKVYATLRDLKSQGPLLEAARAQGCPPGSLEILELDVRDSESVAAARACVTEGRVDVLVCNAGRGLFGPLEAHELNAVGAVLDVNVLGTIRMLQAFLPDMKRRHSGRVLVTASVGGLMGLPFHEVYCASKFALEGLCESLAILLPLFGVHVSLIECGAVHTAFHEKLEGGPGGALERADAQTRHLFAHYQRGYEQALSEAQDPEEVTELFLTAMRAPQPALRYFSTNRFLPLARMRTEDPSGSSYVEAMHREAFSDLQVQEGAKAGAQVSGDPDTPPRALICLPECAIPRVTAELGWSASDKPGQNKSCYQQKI
Excerpt: as §1, §2

mouse 17β-HSD 1 = target: T4, mouse 17β-HSD 1 (Mus musculus, UniProt P51656); assay: In vitro enzymatic activity, recombinant mouse 17β-HSD 1; assay type: biochemical; settings: 2 µM compound, 15 nM 3H-estrone, read-out: Observed % inhibition
T4 construct: Full length cDNAs of several 17β-HSDs type 1 originating from different species were cloned; made in house; host or cells: E.coli BL21 DE3 Codon Plus RP
T4 sequence (P51656 1-344): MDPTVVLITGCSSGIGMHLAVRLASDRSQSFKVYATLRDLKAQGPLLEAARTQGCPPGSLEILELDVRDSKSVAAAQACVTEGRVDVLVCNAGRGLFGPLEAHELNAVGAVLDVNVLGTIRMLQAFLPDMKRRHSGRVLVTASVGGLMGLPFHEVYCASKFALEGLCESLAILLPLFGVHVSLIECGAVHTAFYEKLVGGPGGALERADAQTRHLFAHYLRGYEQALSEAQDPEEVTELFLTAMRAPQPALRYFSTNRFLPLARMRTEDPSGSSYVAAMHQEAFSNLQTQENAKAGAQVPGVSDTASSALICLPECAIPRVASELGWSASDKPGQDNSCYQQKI
Excerpt: as §1, §2

[1] = tested on: 17β-HSD 1 orthologs of five species; assay: In vitro enzymatic activity, 17β-HSD 1 orthologs of five species taken together; assay type: biochemical, human, marmoset, mouse, pig, rat; settings: average over the 17β-HSD 1 orthologs of the species; 2 µM compound
porcine 17β-HSD 1 = target: T5, porcine 17β-HSD 1 (Sus scrofa, UniProt B2X0A4); assay: In vitro enzymatic activity, recombinant porcine 17β-HSD 1; assay type: biochemical, pig; settings: read-out: Observed % inhibition
T5 sequence (B2X0A4 1-321): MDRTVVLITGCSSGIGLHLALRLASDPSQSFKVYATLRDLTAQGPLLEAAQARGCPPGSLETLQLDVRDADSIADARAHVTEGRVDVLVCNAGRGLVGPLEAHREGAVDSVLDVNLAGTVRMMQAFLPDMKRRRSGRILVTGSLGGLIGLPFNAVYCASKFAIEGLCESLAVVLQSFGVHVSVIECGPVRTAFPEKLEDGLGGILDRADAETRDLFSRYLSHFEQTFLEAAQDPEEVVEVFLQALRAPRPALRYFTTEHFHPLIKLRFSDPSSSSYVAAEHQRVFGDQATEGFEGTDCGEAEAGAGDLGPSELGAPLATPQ
Excerpt: as §1, §2

`C[C@]12CC[C@@H]3c4ccc(O)cc4CC[C@H]3[C@@H]1CCC2=O` [Compound 6, estrone, reference compound] showed an inhibition at 2 µM (marmoset 17β-HSD 1) of 110%, an inhibition at 2 µM (human 17β-HSD 1) of 101% and an inhibition at 2 µM (rat 17β-HSD 1) of 79.1%. The inhibition at 2 µM (mouse 17β-HSD 1) was 101%, the “Observed % inhibition, average” value [1] was 95.4% and the inhibition at 2 µM (porcine 17β-HSD 1) was 86.3%.

Source: PMC2882332, “Species Used for Drug Testing Reveal Different Inhibition Susceptibility for 17beta-Hydroxysteroid Dehydrogenase Type 1” (PLoS ONE, 2010)
